The values below come from patent publication US20160024597A1, “miRNAs AS THERAPEUTIC TARGETS IN CANCER” (The Research Foundation For The State University Of New York, priority 2009, published 2016).

In data set [1] the test system is MG63 cells (mut-p53). Nature of the data set: WST-1 cell proliferation assay after miR-140 transfection. The format is cell-based. To be noted: 100 nM transfected, day 5, n=6. The procedure:
(§1) Cells were plated in six-well plates at a density of 2×10^5 cells/well. The next day, cells were transfected with 100 nM of miR-140 precursor or non specific miR control (Ambion, Inc.) with Oligofectamine (Invitrogen Inc.) based on the manufacturer's instructions. Positive control siRNA specific against HDAC4 (ON-TARGET plus SMARTpool L-003497-00-0010, human HDAC4, NM 006037) was purchased from Dharmacon and transfected with Oligofectamine according to the manufacturer's protocols at a final concentration of 100 nM.
(§2) Cells were plated in 96-well plates with 6 repeats at 2,000 cells/well after transfection with miR-140 or miR control. Cells were cultured for 24, 48, 72, 96 and 120 h. The absorbance at 450 and 630 nm was measured after incubation with 10 μl of WST-1 for 1 h.
(Tetrazolium assays rely on reduction of a dye to a coloured formazan, in cell work by metabolically active cells.)

Data set [2] concerns U-2 OS cells (wt-p53). The description is as above. It is filed as cell-based. The settings on record: U-2 OS (wt-p53), 100 nM transfected, day 5, n=6. The method, then: as §1, §2
Data set [3] concerns HCT 116 (null-p53) cells. Described as above. The settings on record: 100 nM transfected, day 5, n=6. It is filed as cell-based, human. The procedure: as §1, §2
For data set [4], the system named is HCT 116 (wt-p53) cells. The description is as above. It is filed as cell-based, human. To be noted: 100 nM transfected, day 5, n=6. The procedure: as §1, §2
Data set [5] has as its system MG63 cells (mut-p53). Nature of the data set: Cell cycle analysis by flow cytometry. The format is cell-based. To be noted: 100 nM, 36 h after transfection. The procedure: (§3) Cells were transfected with miR-140 and miR control described as above. At 36 h after transfection, cells were harvested and resuspended at 0.5-1×10^5 cells/ml in modified Krishan buffer (He, 2007; Tarasov, 2007), containing 0.1% sodium citrate and 0.3% NP-40 and kept at 4° C. Before being analyzed by flow cytometry, cells were treated with 0.02 mg/ml RNase H and stained with 0.05 mg/ml propidium iodide (Sigma).
On the technique in general: Flow cytometry measures light scatter and fluorescence of single cells or particles in a stream.

For data set [6], the system named is U-2 OS cells (wt-p53). As to the kind of experiment: Cell cycle analysis by flow cytometry. It is filed as cell-based. The settings on record: U-2 OS (wt-p53), 100 nM, 36 h after transfection, vs miR control. The method, then:
as §3

The subject of data set [7] is HCT 116 (null-p53) cells. As to the kind of experiment: Cell cycle analysis by flow cytometry. The format is cell-based, human. The settings on record: 100 nM, 36 h after transfection. The method, then:
as §3

The subject of data set [8] is HCT 116 (wt-p53) cells. Nature of the data set: Cell cycle analysis by flow cytometry. It is filed as cell-based, human. The settings on record: 100 nM, 36 h after transfection, vs miR control. The procedure:
as §3

A further data set concerns HDAC4 mRNA. Nature of the data set: HDAC4 mRNA expression by real time qRT-PCR. The format is cell-based, human. To be noted: U-2 OS (wt-p53) and HCT 116 (wt-p53) cells, 100 nM, 24 hrs, GAPDH normalized. The procedure: as §1
Total RNA, including miRNAs, was isolated from cell lines or clinical specimens by using TRIzol reagent (Invitrogen, Inc.) according to the manufacturer's instructions to determine whether the cells were transfected with miR control, miR-140 or siHDAC4 at a final concentration of 100 nM for 24 hrs before RNA isolation.
cDNA was synthesized with the High Capacity cDNA synthesis kit (Applied Biosystems) using 2 μg of total RNA as the template and 10× random primers. Real-time qPCR analysis was done on the experimental mRNAs. The PCR primers and probes for HDAC4, and the internal control gene GAPDH were purchased from Applied Biosystems. qRT-PCR was done on an ABI 7500HT instrument under the following conditions: 50° C., 2 min for one cycle; 95° C., 10 min; 95° C., 15 s; 60° C., 1 min for 40 cycles (n=3).
(In qPCR the cycle at which signal appears reflects the starting amount.)

The subject of a further data set is HDAC4 protein. Nature of the data set: HDAC4 protein expression by Western immunoblot after transfection. It is filed as cell-based, human. To be noted: U-2 OS (wt-p53) and HCT 116 (wt-p53) cells, 100 nM, 48 h after transfection. The procedure:
as §1
Forty-eight hours after transfection with miR-140 or miR control, cells were harvested and lysed in 1×RIPA buffer (Sigma) supplied with 100 uM PMSF (sigma) and proteinase inhibitor cocktail (Sigma). Equal amounts of protein were resolved by a 8% SDS-PAGE gels using the method of Laemmli (Laemmli, 1970), and transferred to polyvinylidene fluoride membranes (BIO-RAD Laboratories). The membranes were then blocked by 5% nonfat milk in TBST (Tris-buffered saline and 1% Tween-20) at room temperature for 1 h. The primary antibodies used for the analysis included goat anti-HDAC4 polyclonal Ab (1:1000, N-18), mouse anti-p53 mAb (1:1000, DO-1), mouse anti-p21 mAb(1:1000, F-5), mouse anti-tubulin mAb (1:1000, TU-02), all from Santa Cruz Biotechnology. […]

The next data set relates to p53. As to the kind of experiment: p53 expression by Western immunoblot. The format is cell-based. To be noted: U-2 OS (wt-p53) and HCT 116 (wt-p53) cells, 48 h after transfection. The method, then:
(§4) Forty-eight hours after transfection with miR-140 or miR control, cells were harvested and lysed in 1×RIPA buffer (Sigma) supplied with 100 uM PMSF (sigma) and proteinase inhibitor cocktail (Sigma). Equal amounts of protein were resolved by a 8% SDS-PAGE gels using the method of Laemmli (Laemmli, 1970), and transferred to polyvinylidene fluoride membranes (BIO-RAD Laboratories). The membranes were then blocked by 5% nonfat milk in TBST (Tris-buffered saline and 1% Tween-20) at room temperature for 1 h. The primary antibodies used for the analysis included goat anti-HDAC4 polyclonal Ab (1:1000, N-18), mouse anti-p53 mAb (1:1000, DO-1), mouse anti-p21 mAb(1:1000, F-5), mouse anti-tubulin mAb (1:1000, TU-02), all from Santa Cruz Biotechnology. Horseradish peroxidase-conjugated antibodies against mouse or goat (1:1000, Santa Cruz Biotechnology) were used as the secondary antibodies. Protein bands were visualized with a chemiluminescence detection system using Super Signal substrate (Pierce).

The next data set deals with p21. As to the kind of experiment: p21 expression by Western immunoblot. The format is cell-based. The settings on record: U-2 OS (wt-p53) and HCT 116 (wt-p53) cells, 48 h after transfection. The procedure:
as §4

For data set [9], the system named is HCT 116 (wt-p53) cells. Nature of the data set: Chemosensitivity assay to methotrexate (WST-1). It is filed as cell-based, human. To be noted: 100 nM transfected, methotrexate 10-1000 nM for 72 h, vs miR control. The procedure: U-2 OS and HCT 116 (wt-p53) cells were replated in 96-well plates at 2×10^3 cells/well in triplicate after transfected with miR-140, miR control, or siRNA against HDAC4 in 100 μl of medium. Twenty-four hours later, methotrexate (ranged from 10-1000 nM) was added and incubated for 72 h. Ten μl of WST-1 (Roche Applied Science) was added to each well. After 1 h incubation, absorbance was measured at 450 and 630 nm respectively. Non-specific miRNA was used as the negative control.

The test system of data set [10] is HCT 116 (wt-p53) cells. Nature of the data set: Chemosensitivity assay to 5-fluorouracil (WST-1). It is filed as cell-based, human. To be noted: 100 nM transfected, 5-FU 2 to 100 μM for 72 h, vs miR control. The method, then: HCT 116 (wt-p53) cells were replated in 96-well plates at 2×10^3 cells per well in triplicate after transfected with miR-140, miR control or siRNA against HDAC4 in 100 μl of medium. After 24 h, 5-FU (ranged from 2 to 100 μM) was added and incubated for 72 h. WST-1 (10 μl) was added to each well. After 1 h incubation, absorbance was measured. Nonspecific miR was used as the negative control.

Data set [11] relates to CD133+hi/CD44+hi colon cancer stem-like cells. As to the kind of experiment: 5-FU cell death assay, FITC Annexin V and PI flow cytometry. The format is cell-based. To be noted: FACS-sorted CD133+hi/CD44+hi cells, lethal dose of 5-FU (100 μM) for 48 h. The method, then:
HCT 116 (wt-p53) cells were sorted with multiparametric flow cytometry with BD FACS Aria cell sorter (Becton Dickinson, CA) at sterile conditions. Cells were prepared as described above and labeled with one or several markers conjugated anti-human CD133-PE (clone 105902; R&D Systems, MN); CD44-FITC (clone F10-44-2, R&D Systems, MN). Antibodies were diluted in buffer containing 5% BSA, 1 mM EDTA and 15-20% blocking reagent (Miltenyi Biotec, CA) to inhibit unspecific binding to non-target cells. After 15 min incubation at 4° C., stained cells were washed, resuspended in 500 μl of MACS buffer and sorted.
(§5) Colon cancer stem-like cells were transfected with 100 nM of LNA anti-miR-140 using Lipofectamine 2000 after FACS-sorting. […] The dead cells were determined by the fluorescein isothiocyanate (FITC) Annexin V and PI detection kit (BD Biosciences, Pharmingen, San Diego, Calif., USA). Briefly, cells were harvested and resuspended in 1× Annexin V binding and stained with Annexin V (5 μl) and PI (5 μl) for 15 min at room temperature in the dark. After additional 400 μl of binding buffer, cells were analyzed by flow cytometry. […]

Data set [12] relates to nonsorted control HCT 116 (wt-p53) cells. The description is as above. The settings on record: lethal dose of 5-FU (100 μM) for 48 h. The format is cell-based, human. The method, then:
as §5

“miR-140: miR-140 precursor (Ambion) transfected at 100 nM to overexpress human miR-140 (SEQ ID NO:1/2) (chain 1 AGUGGUUUUACCUAUGGUAG; chain 2 CAGUGGUUUUACCCUAUGGUAG; listed as RNA, chemistry not given here; listed as Homo sapiens)”: the “suppression of cellular proliferation” value in the data set on MG63 cells (mut-p53) [1] was found to be 31.3±4.96%; in the data set with U-2 OS cells (wt-p53) [2], 64.05±4.01%; in the data set on HCT 116 (null-p53) cells [3], 22.42±1.88%; with HCT 116 (wt-p53) cells [4] it was 81.4±3.75%. Besides, the “G1 and G2 arrest” value in the data set on MG63 cells (mut-p53) [5] and with HCT 116 (null-p53) cells [7] was “has not been observed” each time. Also, the values for the G1 arrest in the data set with U-2 OS cells (wt-p53) [6] and with HCT 116 (wt-p53) cells [8] were 1.76 fold and 3.33 fold, respectively. Further, the G2 arrest stood at 0.92 fold in the data set on U-2 OS cells (wt-p53) [6] and 2.54 fold with HCT 116 (wt-p53) cells [8]. Also, in the data set with HDAC4 mRNA, the “HDAC4 mRNA expression” value is recorded as “no change”. Further, the HDAC4 protein expression entry in the data set with HDAC4 protein is “clearly decreased”. In addition, the p53 protein expression entry with p53 is recorded as “increased”. Further, in the data set on p21, the p21 protein expression entry is “increased”. The “chemosensitivity to methotrexate of transfected cells” value in the data set with HCT 116 (wt-p53) cells [9] is given as “more resistant”. In addition, the “chemosensitivity to 5-fluorouracil of transfected cells” value in the data set on HCT 116 (wt-p53) cells [10] is “more resistant”.

For `O=c1[nH]cc(F)c(=O)[nH]1` [5-FU, 5-fluorouracil], the cell death entry is “about 20%” in [11] and more than 80% in [12].
